For test [1], the system named is A2780. Briefly: Cytotoxicity against human A2780 cells assessed as reduction in cell viability at 5 to 100 uM incubated for 24 hrs by MTT assay. It is filed as functional, cell-based. On the technique in general: Formazan colour is commonly taken as a measure of viable cells.
The test system of test [2] is A2780. Briefly: Induction of apoptosis in human A2780 cells assessed as caspase-9 activation at 50 to 100 uM incubated for 24 hrs by Western blot. In kind it is functional, cell-based. For orientation: A western blot detects proteins with antibodies after separation by electrophoresis.
The subject of test [3] is LLC-PK1. Briefly: Cytotoxicity against LLC-PK1 cells assessed as reduction in cell viability at 5 to 100 uM incubated for 24 hrs by MTT assay. It is filed as cell-based. The note with it: Sus scrofa, LLC-PK1, 24 h.
In test [4] the test system is HeLa. Briefly: Cytotoxicity against human HeLa cells assessed as reduction in cell viability at 5 to 100 uM incubated for 24 hrs by MTT assay. It is filed as functional, cell-based.
The subject of test [5] is MCF7. Briefly: Cytotoxicity against human MCF7 cells assessed as reduction in cell viability at 5 to 100 uM incubated for 24 hrs by MTT assay. It is filed as functional, cell-based.
Test [6] has as its system A2780. Briefly: Induction of apoptosis in human A2780 cells assessed as induction of cell blebbing at 50 to 100 uM incubated for 24 hrs by Hoechst 33342 staining based fluorescence microscopy. It is filed as functional.
Test [7] has as its system A2780. Briefly: Induction of apoptosis in human A2780 cells assessed as induction of cell shrinkage at 50 to 100 uM incubated for 24 hrs by Hoechst 33342 staining based fluorescence microscopy. It is filed as functional.
Test [8] has as its system A2780. Briefly: Induction of apoptosis in human A2780 cells assessed as induction of cell condensation at 50 to 100 uM incubated for 24 hrs by Hoechst 33342 staining based fluorescence microscopy. In kind it is functional.
The test system of test [9] is A2780. Briefly: Induction of apoptosis in human A2780 cells assessed as caspase-8 activation at 50 to 100 uM incubated for 24 hrs by Western blot. In kind it is functional, cell-based.
Test [10] concerns A2780. Briefly: Induction of apoptosis in human A2780 cells assessed as caspase-3 activation at 50 to 100 uM incubated for 24 hrs by Western blot. In kind it is functional, cell-based.
Test [11] relates to A2780. Briefly: Induction of apoptosis in human A2780 cells assessed as PARP cleavage at 50 to 100 uM incubated for 24 hrs by Western blot. It is filed as functional, cell-based.
In test [12] the test system is A2780. Briefly: Induction of apoptosis in human A2780 cells assessed as BID cleavage at 50 to 100 uM incubated for 24 hrs by Western blot. In kind it is functional, cell-based.
For test [13], the system named is A2780. Briefly: Induction of apoptosis in human A2780 cells assessed as increase in BAX protein level at 50 to 100 uM incubated for 24 hrs by Western blot. In kind it is functional, cell-based.
Test [14] relates to A2780. Briefly: Induction of apoptosis in human A2780 cells assessed as reduction in Bcl-2 protein level at 50 to 100 uM incubated for 24 hrs by Western blot. In kind it is functional, cell-based.

Calls of active or inactive are those of the source. The rule behind the calls is not given here.

On to `COc1cc([C@H]2c3cc(O)c(OC)cc3C[C@@H](CO)[C@@H]2CO[C@@H]2O[C@@H](C)[C@H](O)[C@@H](O)[C@H]2O)ccc1O`, for which the result in [1] was inactive.
Same read-out and setting: for `O=c1c(O[C@@H]2O[C@H](CO)[C@@H](O)[C@H](O)[C@H]2O)c(-c2ccc(O)cc2)oc2cc(O)cc(O)c12` the value was “inactive”; for `O=c1c(O)c(-c2ccc(O)cc2)oc2cc(O[C@@H]3O[C@H](CO)[C@@H](O)[C@H](O)[C@H]3O)cc(O)c12`, “inactive”.
The same measure, in the same setting: in the case of `COc1cc(C(=O)O)ccc1O` it was “inactive”; in that of `O=c1cc(-c2ccc(O)c(O)c2)oc2c([C@@H]3O[C@H](CO)[C@@H](O)[C@H](O)[C@H]3O)c(O)cc(O)c12`, “inactive”.
For the compound `COc1cc([C@@H]2c3c(cc(OC)c(O)c3OC)C[C@H](CO)[C@H]2CO[C@@H]2O[C@@H](C)[C@H](O)[C@@H](O)[C@H]2O)cc(OC)c1O`, the result in [2], in test [4] and in [5] was inactive. For the same compound, the Activity entry in test [1] is “Dose-dependent effect”. Besides, the IC50 (usually the concentration needed to halve the response being measured) in test [1] (A2780, 24 h) was 35.4 µM; in test [3] it was over 100 µM. Besides, the outcome in test [6], in [7], in test [8], in [9], in [10] and in [11] was Active. The result in test [12], in [13] and in test [14] was Active.
Turning to `COc1cc([C@@H]2c3cc(O)c(OC)cc3C[C@H](CO)[C@H]2CO[C@@H]2O[C@@H](C)[C@H](O)[C@@H](O)[C@H]2O)ccc1O`, the outcome in [1] was inactive.
As to `COc1cc2c(cc1O)[C@H](c1cc(OC)c(O)c(OC)c1)[C@@H](CO[C@@H]1O[C@@H](C)[C@H](O)[C@@H](O)[C@H]1O)[C@H](CO)C2`, in test [1], the result was inactive.
On the same count and under the same terms, in the case of `COc1cc(C(=O)O)cc(OC)c1O` it was “Active”.

The record behind these values is ChEMBL document CHEMBL4177733, “(-)-9'-O-(α-l-Rhamnopyranosyl)lyoniresinol from Lespedeza cuneata suppresses ovarian cancer cell proliferation through induction of apoptosis” (Bioorg Med Chem Lett, 2018).
